Laboratory results as given in US8710065B2, “Tricyclic inhibitors of kinases” (AbbVie Inc., priority 2011, dated 2014).

target: T1, GST-tagged-Wee1 kinase (Homo sapiens, UniProt P30291); experiment: Wee1 time-resolved fluorescence equilibrium binding assay (displacement of Oregon Green-labeled ATP-competitive kinase probe); details: read-out: Wee-1 inhibition (Ki)
T1 construct: purchased Carnabio (Carna Biosciences) 05-177
Method in brief: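 Time-resolved fluorescence equilibrium binding with GST-Wee1, measuring displacement of a rapidly reversible Oregon Green-labelled ATP-competitive probe by competitive inhibitors; values reported as Ki.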

T1 sequence (P30291 whole entry): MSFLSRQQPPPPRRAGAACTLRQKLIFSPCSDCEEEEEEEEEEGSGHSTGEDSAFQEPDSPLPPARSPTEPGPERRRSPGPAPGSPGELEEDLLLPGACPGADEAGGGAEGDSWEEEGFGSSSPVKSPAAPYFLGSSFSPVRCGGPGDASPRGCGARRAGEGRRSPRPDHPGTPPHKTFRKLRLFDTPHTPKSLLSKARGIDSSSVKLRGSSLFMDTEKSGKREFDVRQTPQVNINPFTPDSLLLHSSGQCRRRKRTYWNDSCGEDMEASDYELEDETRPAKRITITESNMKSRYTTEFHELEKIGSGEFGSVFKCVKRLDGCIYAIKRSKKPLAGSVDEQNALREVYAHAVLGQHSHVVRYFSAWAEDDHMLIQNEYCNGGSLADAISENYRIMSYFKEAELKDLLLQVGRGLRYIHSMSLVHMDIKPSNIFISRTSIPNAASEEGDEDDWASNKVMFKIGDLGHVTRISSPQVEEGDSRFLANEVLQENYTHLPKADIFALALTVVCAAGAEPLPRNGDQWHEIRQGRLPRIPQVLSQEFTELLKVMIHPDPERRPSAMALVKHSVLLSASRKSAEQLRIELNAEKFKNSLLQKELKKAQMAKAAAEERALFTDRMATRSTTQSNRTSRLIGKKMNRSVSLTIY

Row | Ki | Compound
1 | < 10 nM | CC(C)NCCN(c1ccc(Nc2ncc3c(=O)n(-c4c(Cl)cccc4Cl)c4nccn4c3n2)cc1)C(C)C [Example 328, 6-(2,6-dichlorophenyl)-2-[(4-{propan-2-yl[2-(propan-2-ylamino)ethyl]amino}phenyl)amino]imidazo[1,2-a]pyrimido[5,4-e]pyrimidin-5(6H)-one]
2 | < 10 nM | CC(=O)N1CCc2ccc(Nc3ncc4c(=O)n(-c5c(Cl)cccc5Cl)c5nccn5c4n3)cc2C1 [Example 329, 2-[(2-acetyl-1,2,3,4-tetrahydroisoquinolin-7-yl)amino]-6-(2,6-dichlorophenyl)imidazo[1,2-a]pyrimido[5,4-e]pyrimidin-5(6H)-one]
3 | < 10 nM | CS(=O)(=O)N1CCc2cc(Nc3ncc4c(=O)n(-c5c(Cl)cccc5Cl)c5nccn5c4n3)ccc2C1 [Example 330, 6-(2,6-dichlorophenyl)-2-{[2-(methylsulfonyl)-1,2,3,4-tetrahydroisoquinolin-6-yl]amino}imidazo[1,2-a]pyrimido[5,4-e]pyrimidin-5(6H)-one]
4 | < 10 nM | CC(=O)N1CCc2cc(Nc3ncc4c(=O)n(-c5c(Cl)cccc5Cl)c5nccn5c4n3)ccc2C1 [Example 331, 2-[(2-acetyl-1,2,3,4-tetrahydroisoquinolin-6-yl)amino]-6-(2,6-dichlorophenyl)imidazo[1,2-a]pyrimido[5,4-e]pyrimidin-5(6H)-one]
5 | < 10 nM | CN1CCN(c2ccc(Nc3ncc4c(=S)n(-c5ccccc5Cl)c5nccn5c4n3)cc2)CC1 [Example 332, 6-(2-chlorophenyl)-2-{[4-(4-methylpiperazin-1-yl)phenyl]amino}imidazo[1,2-a]pyrimido[5,4-e]pyrimidine-5(6H)-thione]
6 | < 10 nM | CN1CCN(c2ccc(Nc3ncc4c(=N)n(-c5ccccc5Cl)c5nccn5c4n3)cc2)CC1 [Example 333, 6-(2-chlorophenyl)-5-imino-N-[4-(4-methylpiperazin-1-yl)phenyl]-5,6-dihydroimidazo[1,2-a]pyrimido[5,4-e]pyrimidin-2-amine]
7 | < 10 nM | CN1Cc2cc(Nc3ncc4c(=S)n(-c5ccccc5Cl)c5nccn5c4n3)ccc2C(C)(C)C1 [Example 334, 6-(2-chlorophenyl)-2-[(2,4,4-trimethyl-1,2,3,4-tetrahydroisoquinolin-7-yl)amino]imidazo[1,2-a]pyrimido[5,4-e]pyrimidine-5(6H)-thione]
8 | < 10 nM | CN1Cc2cc(Nc3ncc4c(=N)n(-c5ccccc5Cl)c5nccn5c4n3)ccc2C(C)(C)C1 [Example 335, 6-(2-chlorophenyl)-5-imino-N-(2,4,4-trimethyl-1,2,3,4-tetrahydroisoquinolin-7-yl)-5,6-dihydroimidazo[1,2-a]pyrimido[5,4-e]pyrimidin-2-amine]
9 | 10 to 100 nM | CN1CCN(c2ccc(Nc3ncc4c(=O)n(-c5cccc(F)c5)c5nccn5c4n3)cc2)CC1 [Example 336, 6-(3-fluorophenyl)-2-{[4-(4-methylpiperazin-1-yl)phenyl]amino}imidazo[1,2-a]pyrimido[5,4-e]pyrimidin-5(6H)-one]
10 | > 100 nM | CN1CCN(c2ccc(Nc3ncc4c(=O)n(-c5cccc(Cl)c5)c5nccn5c4n3)cc2)CC1 [Example 337, 6-(3-chlorophenyl)-2-{[4-(4-methylpiperazin-1-yl)phenyl]amino}imidazo[1,2-a]pyrimido[5,4-e]pyrimidin-5(6H)-one]
11 | > 100 nM | COc1ccc(-n2c(=O)c3cnc(Nc4ccc(N5CCN(C)CC5)cc4)nc3n3ccnc23)c(OC)c1 [Example 338, 6-(2,4-dimethoxyphenyl)-2-{[4-(4-methylpiperazin-1-yl)phenyl]amino}imidazo[1,2-a]pyrimido[5,4-e]pyrimidin-5(6H)-one]
12 | > 100 nM | CCN1CCN(c2ccc(Nc3ncc4c(=O)n(-c5ccccc5Cl)c5nccn5c4n3)nc2)CC1 [Example 339, 6-(2-chlorophenyl)-2-{[5-(4-ethylpiperazin-1-yl)pyridin-2-yl]amino}imidazo[1,2-a]pyrimido[5,4-e]pyrimidin-5(6H)-one]
13 | > 100 nM | CN1CCN(c2ccc(Nc3ncc4c(=O)n(-c5ccc(C(F)(F)F)cc5Cl)c5nccn5c4n3)cc2)CC1 [Example 340, 6-[2-chloro-4-(trifluoromethyl)phenyl]-2-{[4-(4-methylpiperazin-1-yl)phenyl]amino}imidazo[1,2-a]pyrimido[5,4-e]pyrimidin-5(6H)-one]
14 | > 100 nM | CN1CCN(c2ccc(Nc3ncc4c(=O)n(-c5ccccc5OC(F)(F)F)c5nccn5c4n3)cc2)CC1 [Example 341, 2-{[4-(4-methylpiperazin-1-yl)phenyl]amino}-6-[2-(trifluoromethoxy)phenyl]imidazo[1,2-a]pyrimido[5,4-e]pyrimidin-5(6H)-one]
15 | > 100 nM | O=C(O)c1ccc(Nc2ncc3c(=O)n(-c4ccccc4Cl)c4nccn4c3n2)cc1 [Example 342, 4-{[6-(2-chlorophenyl)-5-oxo-5,6-dihydroimidazo[1,2-a]pyrimido[5,4-e]pyrimidin-2-yl]amino}benzoic acid]
16 | 10 to 100 nM | O=c1c2cnc(Nc3ccc(Br)cc3)nc2n2ccnc2n1-c1ccccc1Cl [Example 343, 2-[(4-bromophenyl)amino]-6-(2-chlorophenyl)imidazo[1,2-a]pyrimido[5,4-e]pyrimidin-5(6H)-one]

Row | Ki | Compound
17 | > 100 nM | COc1cccc(-n2c(=O)c3cnc(Nc4ccccc4)nc3n3ccnc23)c1C [Example 344, 6-(3-methoxy-2-methylphenyl)-2-(phenylamino)imidazo[1,2-a]pyrimido[5,4-e]pyrimidin-5(6H)-one]
18 | 10 to 100 nM | Cc1cc(Nc2ncc3c(=O)n(-c4c(Cl)cccc4Cl)c4nccn4c3n2)ccc1N1CCCNCC1 [Example 345, 2-{[4-(1,4-diazepan-1-yl)-3-methylphenyl]amino}-6-(2,6-dichlorophenyl)imidazo[1,2-a]pyrimido[5,4-e]pyrimidin-5(6H)-one]
19 | 10 to 100 nM | CC(C)n1c(=O)c2cnc(Nc3ccc(N4CCN(C)CC4)cc3)nc2n2ccnc12 [Example 346, 2-{[4-(4-methylpiperazin-1-yl)phenyl]amino}-6-(propan-2-yl)imidazo[1,2-a]pyrimido[5,4-e]pyrimidin-5(6H)-one]
20 | > 100 nM | CN1CCN(c2c(F)cc(Nc3ncc4c(=O)n(-c5ccccc5Cl)c5nccn5c4n3)cc2F)CC1 [Example 347, 6-(2-chlorophenyl)-2-{[3,5-difluoro-4-(4-methylpiperazin-1-yl)phenyl]amino}imidazo[1,2-a]pyrimido[5,4-e]pyrimidin-5(6H)-one]
21 | > 100 nM | O=c1c2cnc(Nc3ccc(C(F)(F)F)cc3)nc2n2ccnc2n1-c1ccccc1Cl [Example 348, 6-(2-chlorophenyl)-2-{[4-(trifluoromethyl)phenyl]amino}imidazo[1,2-a]pyrimido[5,4-e]pyrimidin-5(6H)-one]
22 | 10 to 100 nM | O=c1c2cnc(Nc3ccc(-c4cscn4)cc3)nc2n2ccnc2n1-c1ccccc1Cl [Example 349, 6-(2-chlorophenyl)-2-{[4-(1,3-thiazol-4-yl)phenyl]amino}imidazo[1,2-a]pyrimido[5,4-e]pyrimidin-5(6H)-one]
23 | 10 to 100 nM | O=c1c2cnc(Nc3ccc(-c4nccs4)cc3)nc2n2ccnc2n1-c1ccccc1Cl [Example 350, 6-(2-chlorophenyl)-2-{[4-(1,3-thiazol-2-yl)phenyl]amino}imidazo[1,2-a]pyrimido[5,4-e]pyrimidin-5(6H)-one]
24 | 10 to 100 nM | O=c1c2cnc(Nc3ccc(-c4ccc5cccnc5n4)cc3)nc2n2ccnc2n1-c1ccccc1Cl [Example 351, 6-(2-chlorophenyl)-2-{[4-(1,8-naphthyridin-2-yl)phenyl]amino}imidazo[1,2-a]pyrimido[5,4-e]pyrimidin-5(6H)-one]
25 | 10 to 100 nM | O=c1c2cnc(Nc3ccc(N4CCC[C@H]4C(F)(F)F)cc3)nc2n2ccnc2n1-c1ccccc1Cl [Example 352, 6-(2-chlorophenyl)-2-({4-[(2S)-2-(trifluoromethyl)pyrrolidin-1-yl]phenyl}amino)imidazo[1,2-a]pyrimido[5,4-e]pyrimidin-5(6H)-one]
26 | > 100 nM | CN1CCN(c2c(Cl)cc(Nc3ncc4c(=O)n(-c5ccccc5Cl)c5nccn5c4n3)cc2C(F)(F)F)CC1 [Example 353, 2-{[3-chloro-4-(4-methylpiperazin-1-yl)-5-(trifluoromethyl)phenyl]amino}-6-(2-chlorophenyl)imidazo[1,2-a]pyrimido[5,4-e]pyrimidin-5(6H)-one]
27 | > 100 nM | O=c1c2cnc(Nc3cc(Cl)c(N4CCNCC4)c(C(F)(F)F)c3)nc2n2ccnc2n1-c1ccccc1Cl [Example 354, 6-(2-chlorophenyl)-2-{[3-chloro-4-(piperazin-1-yl)-5-(trifluoromethyl)phenyl]amino}imidazo[1,2-a]pyrimido[5,4-e]pyrimidin-5(6H)-one]
28 | < 10 nM | CN1Cc2cc(Nc3ncc4c(=S)n(-c5ccccc5Cl)c5nccn5c4n3)ccc2C2(CC2)C1 [Example 355, 6-(2-chlorophenyl)-2-[(2′-methyl-2′,3′-dihydro-1′H-spiro[cyclopropane-1,4′-isoquinolin]-7′-yl)amino]imidazo[1,2-a]pyrimido[5,4-e]pyrimidine-5(6H)-thione]
29 | 10 to 100 nM | CC1(C)CN(Cc2ccccc2C#N)Cc2cc(Nc3ncc4c(=O)n(-c5ccccc5Cl)c5nccn5c4n3)ccc21 [Example 356, 2-{[7-{[6-(2-chlorophenyl)-5-oxo-5,6-dihydroimidazo[1,2-a]pyrimido[5,4-e]pyrimidin-2-yl]amino}-4,4-dimethyl-3,4-dihydroisoquinolin-2(1H)-yl]methyl}benzonitrile]
30 | 10 to 100 nM | CCCOc1ccc(CN2Cc3cc(Nc4ncc5c(=O)n(-c6ccccc6Cl)c6nccn6c5n4)ccc3C(C)(C)C2)cc1 [Example 357, 6-(2-chlorophenyl)-2-{[4,4-dimethyl-2-(4-propoxybenzyl)-1,2,3,4-tetrahydroisoquinolin-7-yl]amino}imidazo[1,2-a]pyrimido[5,4-e]pyrimidin-5(6H)-one]
31 | 10 to 100 nM | CC1(C)CN(Cc2cc(F)cc(C(F)(F)F)c2)Cc2cc(Nc3ncc4c(=O)n(-c5ccccc5Cl)c5nccn5c4n3)ccc21 [Example 358, 6-(2-chlorophenyl)-2-({2-[3-fluoro-5-(trifluoromethyl)benzyl]-4,4-dimethyl-1,2,3,4-tetrahydroisoquinolin-7-yl}amino)imidazo[1,2-a]pyrimido[5,4-e]pyrimidin-5(6H)-one]
